Results: US6737383B1, “Herbicidal oxadiazolidines” (priority 1999, dated 2004)

Tests used:
bedstraw = test: Test B pre/postemergence bedstraw; type: in vivo, Galium aparine; conditions: for Bedstraw plant response rating: Postemergence; for Plant response rating, Bedstraw: Preemergence
Summary of the method: (§1)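 Herbicidal effect was estimated by eye on a ten-point control scale after plants spent twelve to sixteen days in a greenhouse following soil or foliar treatment. Foliar sprays targeted plants at one to four leaves; all doses were formulated in a non-phytotoxic solvent with surfactant.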

blackgrass = test: Test B pre/postemergence blackgrass; type: in vivo, Alopecurus myosuroides
Summary of the method: as §1

surinam grass = test: Test B pre/postemergence surinam grass; type: in vivo, Brachiaria decumbens
Summary of the method: as §1

cocklebur = test: Test B pre/postemergence cocklebur; type: in vivo, Xanthium strumarium
Summary of the method: as §1

corn = test: Test B pre/postemergence corn; type: in vivo, Zea mays
Summary of the method: as §1

crabgrass = test: Test B pre/postemergence crabgrass; type: in vivo, Digitaria sanguinalis
Summary of the method: as §1

giant foxtail = test: Test B pre/postemergence giant foxtail; type: in vivo, Setaria faberii
Summary of the method: as §1

morningglory = test: Test B pre/postemergence morningglory; type: in vivo, Ipomoea hederacea; conditions: for Plant response rating, Morningglory: scale of 0 to 10 where 0 is no effect and 10 is complete control
Summary of the method: as §1

pigweed = test: Test B pre/postemergence pigweed; type: in vivo, Amaranthus retroflexus; conditions: for Plant response rating, Redroot pigweed: scale of 0 to 10 where 0 is no effect and 10 is complete control
Summary of the method: as §1

rape = test: Test B pre/postemergence rape; type: in vivo, Brassica napus; conditions: for Plant response rating, Rape: scale of 0 to 10 where 0 is no effect and 10 is complete control
Summary of the method: as §1

sugar beet = test: Test B pre/postemergence sugar beet; type: in vivo, Beta vulgaris; conditions: for Plant response rating, Sugarbeets: scale of 0 to 10 where 0 is no effect and 10 is complete control
Summary of the method: as §1

wheat = test: Test B pre/postemergence wheat; type: in vivo, Triticum aestivum; conditions: for Plant response rating, Wheat: scale of 0 to 10 where 0 is no effect and 10 is complete control
Summary of the method: as §1

wild oat = test: Test B pre/postemergence wild oat; type: in vivo, Avena fatua; conditions: for Plant response rating, Wild oats: scale of 0 to 10 where 0 is no effect and 10 is complete control
Summary of the method: as §1

purple nutsedge = test: Test B pre/postemergence purple nutsedge; type: in vivo, Cyperus rotundus; conditions: for Plant response rating, Nutsedge: scale of 0 to 10 where 0 is no effect and 10 is complete control
Summary of the method: as §1

rice = test: Test B flood test rice; type: in vivo, Oryza sativa
Summary of the method: (§2)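 Read-out is a visual response score from 0 (no effect) to 10 (complete control), assigned by comparison with untreated controls. Treatment was applied at the 2-leaf stage, and plants stayed in the greenhouse for twelve to sixteen days before scoring.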

bamyardgrass = test: Test B flood test barnyardgrass; type: in vivo, Echinochloa crus-galli
Summary of the method: as §2

[1] = Postemergence, Rate 250 g/ha, scale 0 to 10
[2] = Postemergence, Rate 500 g/ha, scale of 0 to 10 where 0 is no effect and 10 is complete control
[3] = Preemergence, Rate 62 g/ha, scale of 0 to 10 where 0 is no effect and 10 is complete control
[4] = Preemergence, Rate 125 g/ha, scale of 0 to 10 where 0 is no effect and 10 is complete control
[5] = Preemergence, Rate 250 g/ha, scale 0 to 10, 0 is no effect, 10 is complete control
[6] = Preemergence, Rate 500 g/ha, scale 0 to 10, 0 is no effect, 10 is complete control
[7] = Rate 62 g/ha, Postemergence, scale 0 to 10, 0 no effect, 10 complete control
[8] = Rate 125 g/ha, Postemergence, scale 0 to 10, 0 is no effect, 10 is complete control
[9] = Rate 62 g/ha, flood test species, Pre-emergence, visual evaluation after twelve to sixteen days
[10] = Rate 125 g/ha, under heading Pre-emergence, flood test species, visual evaluation after twelve to sixteen days
[11] = Rate 250 g/ha, Pre-emergence (flood test species), scale 0 to 10, 0 is no effect, 10 is complete control
[12] = Rate 500 g/ha, Pre-emergence, flood test species, scale 0 to 10 (0 no effect, 10 complete control)

CC[Si](C)(C)Cn1c(=O)on(C(=O)N(c2ccc(F)cc2)C(C)C)c1=O [Compound 459]
2: Giant foxtail plant response rating (giant foxtail; [1])
4: Redroot pigweed plant response rating (pigweed; [5])
6: Bedstraw plant response rating (bedstraw; Rate 250 g/ha, scale 0 to 10) | Blackgrass plant response rating (blackgrass; [6]) | Morningglory plant response rating (morningglory; [7])
9: Crabgrass plant response rating (crabgrass; [5]) | Plant response rating, Giant foxtail (giant foxtail; [4])
0: Plant response rating, Bedstraw (bedstraw; Rate 62 g/ha, scale of 0 to 10 where 0 is no effect and 10 is complete control) | Plant response rating, Bedstraw (bedstraw; Rate 125 g/ha, scale of 0 to 10 where 0 is no effect and 10 is complete control) | Plant response rating, Blackgrass (blackgrass; [3]) | Plant response rating, Blackgrass (blackgrass; [4]) | Blackgrass plant response rating (blackgrass; [7]) | B. signalgrass plant response rating (surinam grass; Postemergence, Rate 250 g/ha, scale 0 to 10, 0 no effect, 10 complete control) | B. signalgrass plant response rating (surinam grass; [2]) | Plant response rating, B. signalgrass (surinam grass; [3]) | Plant response rating, B. signalgrass (surinam grass; [4]) | B. signalgrass plant response rating (surinam grass; [7]) | B. signalgrass plant response rating (surinam grass; [8]) | Cocklebur plant response rating (cocklebur; [1]) | Cocklebur plant response rating (cocklebur; [2]) | Plant response rating, Cocklebur (cocklebur; [3]) | Plant response rating, Cocklebur (cocklebur; [4]) | Cocklebur plant response rating (cocklebur; [5]) | Cocklebur plant response rating (cocklebur; [6]) | Cocklebur plant response rating (cocklebur; [7]) | Cocklebur plant response rating (cocklebur; [8]) | Corn plant response rating (corn; [1]) | Corn plant response rating (corn; [2]) | Plant response rating, Corn (corn; [3]) | Plant response rating, Corn (corn; [4]) | Corn plant response rating (corn; [5]) | Corn plant response rating (corn; [6]) | Corn plant response rating (corn; [7]) | Corn plant response rating (corn; [8]) | Crabgrass plant response rating (crabgrass; [7]) | Giant foxtail plant response rating (giant foxtail; [7]) | Giant foxtail plant response rating (giant foxtail; [8]) | Plant response rating, Morningglory (morningglory; Preemergence, Rate 62 g/ha) | Plant response rating, Morningglory (morningglory; Preemergence, Rate 125 g/ha) | Morningglory plant response rating (morningglory; [5]) | Morningglory plant response rating (morningglory; [6]) | Redroot pigweed plant response rating (pigweed; [1]) | Plant response rating, Redroot pigweed (pigweed; Preemergence, Rate 62 g/ha) | Plant response rating, Redroot pigweed (pigweed; Preemergence, Rate 125 g/ha) | Redroot pigweed plant response rating (pigweed; [7]) | Redroot pigweed plant response rating (pigweed; [8]) | Rape plant response rating (rape; [1]) | Plant response rating, Rape (rape; Preemergence, Rate 62 g/ha) | Plant response rating, Rape (rape; Preemergence, Rate 125 g/ha) | Rape plant response rating (rape; [5]) | Rape plant response rating (rape; [6]) | Rape plant response rating (rape; [7]) | Rape plant response rating (rape; [8]) | Sugarbeets plant response rating (sugar beet; [1]) | Plant response rating, Sugarbeets (sugar beet; Preemergence, Rate 62 g/ha) | Plant response rating, Sugarbeets (sugar beet; Preemergence, Rate 125 g/ha) | Sugarbeets plant response rating (sugar beet; [5]) | Sugarbeets plant response rating (sugar beet; [6]) | Sugarbeets plant response rating (sugar beet; [7]) | Sugarbeets plant response rating (sugar beet; [8]) | Wheat plant response rating (wheat; [1]) | Plant response rating, Wheat (wheat; Preemergence, Rate 62 g/ha) | Plant response rating, Wheat (wheat; Preemergence, Rate 125 g/ha) | Wheat plant response rating (wheat; [5]) | Wheat plant response rating (wheat; [6]) | Wheat plant response rating (wheat; [7]) | Wheat plant response rating (wheat; [8]) | Wild oats plant response rating (wild oat; [1]) | Plant response rating, Wild oats (wild oat; Preemergence, Rate 62 g/ha) | Plant response rating, Wild oats (wild oat; Preemergence, Rate 125 g/ha) | Wild oats plant response rating (wild oat; [5]) | Wild oats plant response rating (wild oat; [6]) | Wild oats plant response rating (wild oat; [7]) | Wild oats plant response rating (wild oat; [8]) | Nutsedge plant response rating (purple nutsedge; [1]) | Plant response rating, Nutsedge (purple nutsedge; Preemergence, Rate 62 g/ha) | Plant response rating, Nutsedge (purple nutsedge; Preemergence, Rate 125 g/ha) | Nutsedge plant response rating (purple nutsedge; [5]) | Nutsedge plant response rating (purple nutsedge; [6]) | Nutsedge plant response rating (purple nutsedge; [7]) | Nutsedge plant response rating (purple nutsedge; [8]) | Plant response rating, Rice (0 to 10 scale, 0 is no effect, 10 is complete control) (rice; [9]) | Rice plant response rating (0 to 10 scale, 0 is no effect, 10 is complete control) (rice; [10]) | Rice plant response rating (rice; [11]) | Rice plant response rating (rice; [12]) | Plant response rating, Barnyardgrass (0 to 10 scale, 0 is no effect, 10 is complete control) (bamyardgrass; [9]) | Barnyardgrass plant response rating (0 to 10 scale, 0 is no effect, 10 is complete control) (bamyardgrass; [10]) | Barnyardgrass plant response rating (bamyardgrass; [11]) | Barnyardgrass plant response rating (bamyardgrass; [12])
8: Bedstraw plant response rating (bedstraw; Rate 500 g/ha, scale of 0 to 10 where 0 is no effect and 10 is complete control) | Blackgrass plant response rating (blackgrass; [1]) | Blackgrass plant response rating (blackgrass; [2]) | Crabgrass plant response rating (crabgrass; [2]) | Plant response rating, Giant foxtail (giant foxtail; [3]) | Morningglory plant response rating (morningglory; [8])
10: Crabgrass plant response rating (crabgrass; [6]) | Giant foxtail plant response rating (giant foxtail; [5]) | Giant foxtail plant response rating (giant foxtail; [6])
1: Blackgrass plant response rating (blackgrass; [8]) | B. signalgrass plant response rating (surinam grass; [5]) | B. signalgrass plant response rating (surinam grass; [6]) | Crabgrass plant response rating (crabgrass; [8])
7: Plant response rating, Crabgrass (crabgrass; [4]) | Redroot pigweed plant response rating (pigweed; [6])
5: Blackgrass plant response rating (blackgrass; [5]) | Crabgrass plant response rating (crabgrass; [1]) | Plant response rating, Crabgrass (crabgrass; [3]) | Giant foxtail plant response rating (giant foxtail; [2])
